Results as given in ChEMBL document CHEMBL1122334, “New azacannabinoids highly active in the central nervous system” (1983).

Tests used:
Format in all cases: functional
[1] = species: Mus musculus; assay: The compound was tested for analgesic activity using writhing (W) test in mouse
[2] = system: Mus musculus; assay: The compound was tested for activity to decrease fighting in mouse at a dose of 10 mg/Kg
[3] = system: Mus musculus; assay: The compound was tested for activity to decrease fighting in mouse at a dose of 5 mg/Kg
[4] = species: Rattus norvegicus; assay: The compound was tested for analgesic activity using (RTF) tail-flick test in rat
[5] = system: Rattus norvegicus; assay: The compound was tested for decreasing motor activity in rat at a dose of 1 mg/Kg
[6] = system: Rattus norvegicus; assay: The compound was tested for decreasing motor activity in rat at a dose of 4 mg/Kg
[7] = system: Rattus norvegicus; assay: The compound was tested for methamphetamine antagonism in rat at a dose of 20 mg/Kg
[8] = system: Rattus norvegicus; assay: The compound was tested for methamphetamine antagonism in rat at a dose of 5 mg/Kg
[9] = system: Rattus norvegicus; assay: The compound was tested for hyperexcitability in rat at a dose of 20 mg/Kg
[10] = system: Rattus norvegicus; assay: The compound was tested for hyperexcitability in rat at a dose of 5 mg/Kg
[11] = system: Rattus norvegicus; assay: The compound was tested for methamphetamine antagonism in rat at a dose of 80 mg/Kg
[12] = system: Rattus norvegicus; assay: The compound was tested for serotonin antagonism in rat at a dose of 5 mg/Kg
[13] = system: Rattus norvegicus; assay: The compound was tested for serotonin antagonism in rat at a dose of 80 mg/Kg
[14] = system: Rattus norvegicus; assay: The compound was tested for decreasing motor activity in rat at a dose of 20 mg/Kg
[15] = system: Rattus norvegicus; assay: The compound was tested for decreasing motor activity in rat at a dose of 5 mg/Kg
[16] = system: Rattus norvegicus; assay: The compound was tested for decreasing motor activity in rat at a dose of 80 mg/Kg
[17] = system: Rattus norvegicus; assay: The compound was tested for serotonin antagonism in rat at a dose of 20 mg/Kg
[18] = system: Rattus norvegicus; assay: The compound was tested for hyperexcitability in rat at a dose of 80 mg/Kg
[19] = system: Mus musculus; assay: The compound was tested for analgesic activity using writhing (W) test in mouse at a dose of 10 mg/Kg
[20] = system: Mus musculus; assay: The compound was tested for analgesic activity using writhing (W) test in mouse at a dose of 51 mg/Kg
[21] = system: Rattus norvegicus; assay: The compound was tested for hyper excitability in rat at a dose of 20 mg/Kg
[22] = system: Rattus norvegicus; assay: The compound was tested for hyper excitability in rat at a dose of 80 mg/Kg
[23] = system: Rattus norvegicus; assay: The compound was tested for hyperexcitability in rat. at a dose of 5 mg/Kg
[24] = system: Mus musculus; assay: The compound was tested for analgesic activity using writhing (W) test in mouse at a dose of 40 mg/Kg
[25] = system: Mus musculus; assay: The compound was tested for activity to decrease fighting in mouse at a dose of 20 mg/Kg
[26] = system: Rattus norvegicus; assay: The compound was tested for analgesic activity using (RTF) tail-flick test at a dose of 40 mg/Kg
[27] = system: Rattus norvegicus; assay: The compound was tested for decreasing motor activity in rat. at a dose of 5 mg/Kg
[28] = system: Rattus norvegicus; assay: The compound was tested for analgesic activity using (RTF) tail-flick test in rat at a dose of 20 mg/Kg
[29] = system: Rattus norvegicus; assay: The compound was tested for hyperexcitability in rat. at a dose of 80 mg/Kg
[30] = system: Rattus norvegicus; assay: The compound was tested for decreasing motor activity in rat at a dose of 10 mg/Kg
[31] = system: Rattus norvegicus; assay: The compound was tested for hyperexcitability in rat at a dose of 10 mg/Kg
[32] = system: Rattus norvegicus; assay: The compound was tested for analgesic activity using (RTF) tail-flick test in rat at a dose of 40 mg/Kg

| Structure (SMILES) | Decrease in fighting [3] [%] | Decrease in activity [7] [%] | Decrease in activity [8] [%] | Possible response [9] [%] | Possible response [10] [%] | Decrease in activity [11] [%] | Decrease in activity [12] [%] | Decrease in activity [13] [%] | Decrease in activity [14] [%] | Decrease in activity [15] [%] | Decrease in activity [16] [%] | Decrease in activity [17] [%] | Possible response [18] [%] | increase in response [19] [%] | Decrease in fighting [25] [%] | Decrease in activity [27] [%] | other results |
| --- | --- | --- | --- | --- | --- | --- | --- | --- | --- | --- | --- | --- | --- | --- | --- | --- | --- |
| C#CCN1CCC2=C(C1)c1c(O)cc(C(C)CCCc3ccc(F)cc3)cc1OC2(C)C (configuration not stated) | -29 | 34 | 8 | 100 | 60 | 84 |  |  |  |  |  |  |  |  |  |  | ED50 [1]: 5.3 mg/kg; Decrease in fighting [2]: 47%; ED50 [4]: 3.7 mg/kg; Decrease in activity [5]: 60%; Decrease in activity [6]: 77% |
| CCCCCC(C)C(C)c1cc(O)c2c(c1)OC(C)(C)C1=C2CN(C(C)C(=O)NC(N)=O)CC1 (configuration not stated) |  | 50 | 47 | 63 | 50 | 81 | 11 | 98 | 67 | 67 | 83 | 43 | 77 |  |  |  |  |
| CCCCCC(C)C(C)c1cc(O)c2c(c1)OC(C)(C)C1=C2CN(CC(=O)Nc2ccccc2)CC1 (configuration not stated) |  | 15 | 0 | 0 | 0 | -9 | 3 | -13 | 18 | 4 | 6 | -28 | 0 | 12 |  |  |  |
| CC(CCCc1ccc(F)cc1)c1cc(O)c2c(c1)OC(C)(C)C1=C2CN(CC(=O)NCC(N)=O)CC1 (configuration not stated) |  | 2 | 1 | 0 | 0 | 25 | -17 | 26 | 12 | -11 | 9 | -10 | 0 |  |  |  |  |
| CCCCCC(C)C(C)c1cc(O)c2c(c1)OC(C)(C)C1=C2CN(CC(=O)NC(=O)Nc2ccccc2)CC1 (configuration not stated) |  | -24 | -37 | 0 | 0 | -28 | -56 | -17 | 42 | 37 | 51 | -15 | 0 |  |  |  |  |
| CCCCCC(C)C(C)c1cc(O)c2c(c1)OC(C)(C)C1=C2CN(CC(=O)OCC)CC1 (configuration not stated) |  | 54 | 18 |  |  | 81 | 60 | 89 | 19 | 49 | 60 | 56 |  | 35 |  |  | increase in response [20]: 51%; Possible response [21]: 12%; Possible response [22]: 81%; Possible response [23]: 0% |
| CCCCCC(C)C(C)c1cc(O)c2c(c1)OC(C)(C)C1=C2CN(CC(=O)NC(=O)NC)CC1 (configuration not stated) |  | 66 | 38 | 71 | 35 | 54 | 34 | 89 | 68 | 63 | 88 | 50 | 81 |  |  |  |  |
| CCCCCC(C)C(C)c1cc(O)c2c(c1)OC(C)(C)C1=C2CN(CC(N)=O)CC1 (configuration not stated) | 10 | 58 | 42 | 79 | 65 | 71 | 71 | 78 | 78 |  | 86 | 83 | 98 | 6 | 21 | 28 | increase in response [24]: 82%; increase in response [26]: 132% |
| CCCCCC(C)C(C)c1cc(O)c2c(c1)OC(C)(C)C1=C2CN(CC(=O)NC)CC1 (configuration not stated) | 11 | 72 | 72 | 100 | 92 | 72 | -54 | 97 | 66 | 33 | 93 | 21 |  |  | 34 |  | ED50 [1]: 5.1 mg/kg; increase in response [28]: 92%; Possible response [29]: 100% |
| CNC(=O)CN1CCC2=C(C1)c1c(O)cc(C(C)CCCc3ccc(F)cc3)cc1OC2(C)C (configuration not stated) | 56 | 63 | 51 | 100 | 92 | 73 | 6 | 92 | 66 |  | 94 | 63 | 100 | 71 | 93 | 73 |  |
| CCCCCC(C)C(C)c1cc(O)c2c(c1)OC(C)(C)C1=C2CN(CCC(N)=O)CC1 (configuration not stated) |  | 17 | -4 | 0 | 0 | 13 | -73 | -71 | 65 |  | 83 | -13 | 67 | 0 |  | 49 |  |
| CCCCCc1cc(O)c2c(c1)OC(C)(C)[C@@H]1CCC(C)=C[C@@H]21 [DRONABINOL] | 36 |  |  | 100 | 29 |  |  |  | 72 | 15 |  |  |  |  |  |  | ED50 [1]: 43 mg/kg; ED50 [4]: 27 mg/kg; Decrease in activity [30]: 41% |
| CC(CCCc1ccc(F)cc1)c1cc(O)c2c(c1)OC(C)(C)C1=C2CN(CC(=O)N(C)C)CC1 (configuration not stated) | 3 | 34 | -35 | 10 | 0 | 54 | 11 | 55 | 27 |  | 68 | 12 | 69 | 24 | 12 | 0 |  |
| C#CCN1CCC2=C(C1)c1c(O)cc(C(C)C(C)CCCCC)cc1OC2(C)C (configuration not stated) | 48 | 80 | 59 |  | 29 | 73 | 81 | 33 |  |  |  | 84 |  |  |  |  | ED50 [1]: 4.3 mg/kg; Decrease in fighting [2]: 62%; ED50 [4]: 14 mg/kg; Decrease in activity [30]: 51%; Possible response [31]: 71% |
| CCCCCC(C)C(C)c1cc(O)c2c(c1)OC(C)(C)C1=C2CN(CC(=O)N(C)C)CC1 (configuration not stated) | 10 | -36 | -43 | 13 | 0 | 26 |  |  | 65 |  | 78 |  | 69 | 19 | 13 | 53 | increase in response [24]: 86%; increase in response [32]: 84% |
